Several values for one entry are separate records, joined by “and”; a condition that tells them apart may be missing. Identical values can stand only once. Like-named read-outs stand apart in the source and are kept apart here.

The source of these data is article PMC9919139, “Sustainable Synthesis, Antiproliferative and Acetylcholinesterase Inhibition of 1,4- and 1,2-Naphthoquinone Derivatives” (Molecules, 2023).

The test system of series [1] is AChE. The conditions noted are these: read-out: AChEIC50 of reference AChE inhibitors; cited from earlier work.
Series [2] has as its target acetylcholinesterase (AChE) (Homo sapiens, UniProt P22303). The series can be described thus: AChE inhibition assay (Ellman's colorimetric method). It counts as biochemical. As to the method: The inhibition of acetylcholinesterase (AChE) enzymatic activity was measured using the Ellman’s colorimetric method with some alterations. Briefly, 325 μL of 50 mM Tris–HCl buffer (pH 8), 100 μL of a compound’s solution with 1% DMSO, and 25 μL of AChE (0.1 U/mL) in 50 mM Tris–HCl buffer pH 8 were incubated for 15 min. Subsequently, 75 μL of acetylthiocholine iodide (AChI) (0.023 mg/mL) and 475 μL of 3 mM 5,5′-dithiobis(2-nitrobenzoic acid) (DTNB) in Tris–HCl buffer (pH 8) containing 0.05 M NaCl and 0.021 M MgCl2 were added to initiate the reaction. The initial rate of the enzymatic reaction was quantified by measuring the absorbance at 405 nm for 5 min (V[compound]). A control reaction was carried out using 1% DMSO water solution, instead of the compound’s solution, and this initial rate was considered 100% of the enzymatic activity, Vcontrol. The percentage of AChE inhibition (I) for various concentrations of the different compounds was determined as the ratio of V[compound] and Vcontrol. For each compound, both the AChEIC50 value (the concentration that inhibits 50% of the AChE activity) and the percentage of inhibition at the compound concentration of 50 µM (Inhibition50µM) were calculated by plotting I for each compound concentration. All the assays were carried out in triplicate.
A general note: DTNB colorimetry detects thiols as they appear.

A short description of series [3]: Cyclic voltammetry in acetonitrile. The format is physicochemical. To be noted: for Ipa/Ipc: Tables S1/S2, acetonitrile; for Epa. Epc: Tables S1/S2, peak separation; for ∆E (I) / E1/2 (I) / Epc (I): first reduction wave. The text has this: To obtain an insight into the electronic character of the studied naphthoquinone derivatives and to find out possible relationships with their potential biological activities, the electrochemical behavior of 1,4-NQ (1) and 1,2-NQ (2) and their 2-substituted-1,4-NQ (3a–f) and 4-substituted-1,2-NQ derivatives (4a–h), respectively, were studied by cyclic voltammetry (CV) in aprotic medium (CH3CN + TBAP, 0.1 mol.L^−^1) and the electrochemical selected data are listed in Table 3 (for complete electrochemical data, see Tables S1 and S2, supplementary material).
The redox potentials were measured by cyclic voltammetry using an EG&G Princeton Applied Research (PAR) Model 273A potentiostat/galvanostat monitored by a personal computer with the Electrochemistry PowerSuite v2.51 software from PAR. Cyclic voltammograms were obtained in 1 mM of compounds in anhydrous acetonitrile solutions containing tetrabutylammonium hexafluorophosphate (TBAPF6) 0.1 M as supporting electrolyte. A three-electrode configuration cell was used with a homemade platinum disk working electrode (1.0 mm diameter) probed by a Luggin capillary connected to a silver-wire pseudo-reference electrode and a platinum wire auxiliary electrode. The potentials were scanned from −1.8 to 1.8 V at a scan rate of 100 mV·s^−^1. All measurements were done at room temperature and the solutions were deaerated with nitrogen atmosphere before use. All the potentials reported were measured against the ferrocene/ferrocenium redox couple as internal standard and corrected to SCE (using the ferrocenium/ferrocene redox couple E1/2 = 0.40 V vs. SCE).

Series [4] can be described thus: MTT cytotoxicity assay against HepG2 cell line. To be noted: human, HepG2 cells, HepG2, 24 h incubation, mean ± SD, read-out: EC50 (cytotoxicity, concentration leading to the death of 50% of the cells). The format is cell-based, human. As for the experimental part: (§1) A hepatocellular carcinoma cell line HepG2, recognized for studying the metabolism of anticancer drugs, was used. The viability of HepG2 cell line culture after 24 h incubation with the compounds using the MTT (3-[4,5-dimethylthiazol-2-yl]-2,5-diphenyl tetrazolium bromide) assay was evaluated, and doxorubicin (Doxo) was used as a positive control.
(§2) HepG2 human hepatocyte carcinoma cell line was purchased from European Collection of Authenticated Cell Cultures (ECACC). HepG2 cells (ECACCC# 85011430) were cultured in Dulbecco’s Modified Eagle´s Medium (DMEM) supplemented with 10% fetal bovine serum, antibiotic-antimycotic (100 U/mL penicillin-streptomycin and 0.25 μg amphotericin B) and 2 mM L-glutamine at 37 °C in an atmosphere containing 5% CO2. The 3-(4,5-dimethylthiazol-2-yl)-2,5-diphenyltetrazolium bromide (MTT) method, described in Gaspar et al., [50] was used for assaying cell viability. Briefly, the cells were grown in the supplemented medium in 96-well microplates in an incubator with 5% CO2 at 37 °C, until reaching 100% confluence. After growth, the medium was replaced by the compounds’ solutions at different concentrations. The compounds were solubilized in supplemented medium containing 0.5% DMSO final concentration. Cells treated only with medium containing 0.5% DMSO served as a negative control. After 24 h incubation, the compound’s solutions were replaced by 100 µL of 0.5 mg/mL MTT solution in DMEM culture medium and incubated at 37 °C, 5% CO2 for 2–4 h. The formed formazan crystals were dissolved in 200 µL of methanol and the absorbance at 595 nm was registered against 630 nm (reference wavelength). For each concentration of the compounds, the percentage of growth inhibition/cytotoxicity was evaluated considering 100% of viability for the absorbance of the negative control. Dose-response curves for each compound were plotted using the Graph Pa Prim 4.0 software and the effective concentration leading to the death of 50% of the cells (EC50) was calculated. All experiments were replicated at least six times.
(Tetrazolium dyes change colour on reduction, which living cells bring about.)

Series [5] concerns HepG2 human hepatocyte carcinoma cell line. The series can be described thus: MTT cytotoxicity assay against HepG2 cell line. The format is cell-based. To be noted: HepG2, 24 h incubation, mean ± SD, read-out: EC50 (cytotoxicity, concentration leading to the death of 50% of the cells). As to the method: as §1, §2
Setting [6] is: read-out: Inhibition50µM (AChE inhibition).
Where [7] appears, read: read-out: Inhibiton50µM (μM±SD).
The mark [8] stands for this setting: acetonitrile, scan rate 0.100 V·s−1.
The mark [9] stands for this setting: acetonitrile, vs SCE, scan rate 0.100 V·s−1.
The mark [10] stands for this setting: second reduction wave, acetonitrile, vs SCE, scan rate 0.100 V·s−1.

Regarding `COc1ccc2c3c1O[C@H]1C[C@@H](O)C=C[C@@]31CCN(C)C2` [galantamine], the IC50 in series [1] was […].

Chain of acetylcholinesterase (AChE) (P22303 32-614): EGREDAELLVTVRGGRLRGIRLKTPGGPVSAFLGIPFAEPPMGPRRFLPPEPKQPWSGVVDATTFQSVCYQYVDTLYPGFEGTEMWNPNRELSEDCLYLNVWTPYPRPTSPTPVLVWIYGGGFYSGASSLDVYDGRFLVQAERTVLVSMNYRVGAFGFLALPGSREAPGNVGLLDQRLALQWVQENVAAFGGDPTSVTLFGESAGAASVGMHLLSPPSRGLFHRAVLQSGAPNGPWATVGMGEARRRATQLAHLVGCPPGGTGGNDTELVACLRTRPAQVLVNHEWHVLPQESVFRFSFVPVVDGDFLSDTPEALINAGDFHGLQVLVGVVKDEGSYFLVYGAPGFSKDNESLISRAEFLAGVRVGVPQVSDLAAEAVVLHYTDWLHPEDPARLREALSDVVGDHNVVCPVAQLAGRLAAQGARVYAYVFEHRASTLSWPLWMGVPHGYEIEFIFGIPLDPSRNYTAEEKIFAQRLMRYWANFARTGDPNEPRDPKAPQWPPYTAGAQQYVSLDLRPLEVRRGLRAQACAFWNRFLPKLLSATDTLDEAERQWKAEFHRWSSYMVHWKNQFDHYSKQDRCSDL

Take `O=C1C=Cc2ccccc2C1=O` [Compound 2, 1,2-naphthoquinone]: the inhibition at 50 µM in series [2] (setting [6]) was determined as 35%. Moreover, in series [2] (setting [7]), the inhibition at 50 µM worked out at 34.9 ± 5.2%. The Ipa/Ipc in series [3] (100 mV.s-1) turned out to be 1.0. In addition, in series [3] (acetonitrile, 100 mV.s-1), the “Epa. Epc” value was 110 mV and 140 mV. In addition, the “∆E (I)” value in series [3] (setting [8]) is given as 110 mV. Moreover, in series [3] (setting [9]), the “E1/2 (I)” value is given as −0.50 V and the “Epc (I)” value is listed as −0.55 V. In addition, in series [3] (second reduction wave, acetonitrile, scan rate 0.100 V·s−1), the “∆E (II)” value was found to be 140 mV. Moreover, in series [3] (setting [10]), the “E1/2 (II)” value is reported as −0.91 V and the “Epc (II)” value is −0.98 V. Moreover, in series [4], the EC50 at 24 h amounted to 25.6 ± 1.1 µM. Further, the EC50 in series [5] (listed as 1,2-NQ) was determined as 26 µM.

Turning to `CCN(C)C(=O)Oc1cccc([C@H](C)N(C)C)c1` [rivastigmine], in series [1], the IC50 is […].

For the molecule `O=C1C=CC(=O)c2ccccc21` [Compound 1, 1,4-naphthoquinone, reference compound], the inhibition at 50 µM in series [2] (setting [6]) was determined as 51%. Besides, the inhibition at 50 µM in series [2] (setting [7]) came to 50.7 ± 2.3%. The same molecule registered an Ipa/Ipc in series [3] (100 mV.s-1) of 0.9. The E1/2 in series [3] (Tables S1/S2, every redox process listed, acetonitrile, vs SCE, 100 mV.s-1) is reported as -0.66 V. Further, the “Epa. Epc” value in series [3] (acetonitrile, 100 mV.s-1) worked out at 80 mV. Further, the “∆E (I)” value in series [3] (setting [8]) came out at 80 mV. For the same molecule, in series [3] (setting [9]), the “E1/2 (I)” value is given as −0.66 V and the “Epc (I)” value is −0.70 V. The “Epc (II)” value in series [3] (setting [10]) is on record as −1.36 V. The EC50 at 24 h in series [4] is 32.2 ± 1.4 µM. In addition, the EC50 in series [5] (listed as 1,4-NQ) worked out at 32 µM.
